Measurements: patent US12281122B1, “PI3K inhibitors” (Cogent Biosciences, Inc., priority 2023, dated 2025)

Tests used:
[1] = test system: T47D (PI3Kα-H1047R) cell line; experiment: HTRF phospho-AKT(S473) cell assay in T47D cells; format: cell-based, human
Summary of the method: (§1)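 T47D: RPMI + 10% FBS + 0.2 units/mL insulin, top 5 μM. SKBR3: McCoy's 5A + 10% FBS, top 10 μM, 70 ng/ml PDGF-BB last 15 min. Both: 12-pt 1:3, 2 h, 37° C, max 0.5% DMSO; HTRF pAKT(S473); IC50.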

[2] = test system: SKBR3 (PI3Kα-Wild Type) cell line; experiment: HTRF phospho-AKT(S473) cell assay in SKBR3 cells; format: cell-based, human
Summary of the method: as §1

[3] = Homo sapiens; T47D (PI3Kα-H1047R) cells, HTRF phospho-AKT(S473), 2 hours compound incubation
[4] = Homo sapiens, SK-BR-3; SKBR3 (PI3Kα-Wild Type) cells, HTRF phospho-AKT(S473), 2 hours compound incubation, PDGF-BB stimulated
[5] = Homo sapiens; HTRF phospho-AKT(S473), T47D (PI3Kα-H1047R) cells, 2 hours compound incubation
[6] = Homo sapiens, SK-BR-3; HTRF phospho-AKT(S473), SKBR3 (PI3Kα-Wild Type) cells, 2 hours compound incubation, PDGF-BB stimulated

SMILES | IC50 [1, 3] [nM] | IC50 [2, 4] [nM] | IC50 [1, 5] [nM] | IC50 [2, 6] [nM]
Cc1cc([C@@H](C)Nc2ccc(Cl)nc2C(=O)NS(C)(=O)=O)c2nc(N3C[C@H]4C[C@@H]3CN4c3ccn(C)n3)n(C)c(=O)c2c1 [Compound 229, 6-chloro-3-(((R)-1-(3,6-dimethyl-2-((1R,4R)-5-(1-methyl-1H-pyrazol-3-yl)-2,5-diazabicyclo[2.2.1]heptan-2-yl)-4-oxo-3,4-dihydroquinazolin-8-yl)ethyl)amino)-N-(methylsulfonyl) picolinamide] | < 250 | 1000 to 5000 |  | 
Cc1cc([C@@H](C)Nc2ccc(Cl)nc2C(=O)NS(C)(=O)=O)c2nc(N3CCC(c4ccn(C)n4)CC3)n(C3CC3)c(=O)c2c1 [Compound 372, (R)-6-chloro-3-((1-(3-cyclopropyl-6-methyl-2-(4-(1-methyl-1H-pyrazol-3-yl)piperidin-1-yl)-4-oxo-3,4-dihydroquinazolin-8-yl)ethyl)amino)-N-(methylsulfonyl) picolinamide] | < 250 | 1000 to 5000 |  | 
Cc1cc([C@@H](C)Nc2ccc(Cl)nc2C(=O)NS(C)(=O)=O)c2nc(N3CC[C@@H](Oc4ccc(F)cc4)C3)n(C)c(=O)c2c1 [Compound 203, 6-chloro-3-(((R)-1-(2-((R)-3-(4-fluorophenoxy)pyrrolidin-1-yl)-3,6-dimethyl-4-oxo-3,4-dihydroquinazolin-8-yl)ethyl)amino)-N-(methylsulfonyl) picolinamide] | < 250 | 1000 to 5000 |  | 
Cc1cc([C@@H](C)Nc2ccc(Cl)nc2C(=O)NS(C)(=O)=O)c2nc(N3CCC(c4nn(C)cc4F)CC3)n(C)c(=O)c2c1 [Compound 247, (R)-6-chloro-3-((1-(2-(4-(4-fluoro-1-methyl-1H-pyrazol-3-yl)piperidin-1-yl)-3,6-dimethyl-4-oxo-3,4-dihydroquinazolin-8-yl)ethyl)amino)-N-(methylsulfonyl) picolinamide] | < 250 | 1000 to 5000 |  | 
COc1ncc(F)c(N2CCN(c3nc4c([C@@H](C)Nc5ccc(Cl)nc5C(=O)NS(C)(=O)=O)cc(C)cc4c(=O)n3C)CC2)n1 [Compound 720, (R)-6-chloro-3-((1-(2-(4-(5-fluoro-2-methoxypyrimidin-4-yl)piperazin-1-yl)-3,6-dimethyl-4-oxo-3,4-dihydroquinazolin-8-yl)ethyl)amino)-N-(methylsulfonyl) picolinamide] |  |  | < 250 | 1000 to 5000
Cc1cc([C@@H](C)Nc2ccc(Cl)nc2C(=O)NS(C)(=O)=O)c2nc(N3C[C@@H]4[C@H](C3)[C@H]4c3nnn(C)n3)n(C)c(=O)c2c1 [Compound 496, 6-chloro-3-(((R)-1-(3,6-dimethyl-2-((1R,5S,6R)-6-(2-methyl-2H-tetrazol-5-yl)-3-azabicyclo[3.1.0]hexan-3-yl)-4-oxo-3,4-dihydroquinazolin-8-yl)ethyl)amino)-N-(methylsulfonyl) picolinamide] |  |  | < 250 | 1000 to 5000
Cc1cc([C@@H](C)Nc2ccc(Cl)nc2C(=O)NS(C)(=O)=O)c2nc(-c3cnc(-c4cnn(C)c4)c(Cl)c3)n(C)c(=O)c2c1 [Compound 292, (R)-6-chloro-3-((1-(2-(5-chloro-6-(1-methyl-1H-pyrazol-4-yl)pyridin-3-yl)-3,6-dimethyl-4-oxo-3,4-dihydroquinazolin-8-yl)ethyl)amino)-N-(methylsulfonyl) picolinamide] | < 250 | 1000 to 5000 |  | 
Cc1cc([C@@H](C)Nc2ccc(Cl)nc2C(=O)NS(=O)(=O)C2COC2)c2nc(N3CCOCC3)n(C)c(=O)c2c1 [Compound 294, (R)-6-chloro-3-((1-(3,6-dimethyl-2-morpholino-4-oxo-3,4-dihydroquinazolin-8-yl)ethyl)amino)-N-(oxetan-3-ylsulfonyl)picolinamide] | < 250 | 1000 to 5000 |  | 
Cc1cc([C@@H](C)Nc2ccc(Cl)nc2C(=O)NS(C)(=O)=O)c2nc(N3C[C@H]4C[C@@H](C3)C4c3n[nH]cc3F)n(C)c(=O)c2c1 (mixture of isomers) [Compound 650, 6-chloro-3-(((1R)-1-(2-((1R,5S)-6-(4-fluoro-1H-pyrazol-3-yl)-3-azabicyclo[3.1.1]heptan-3-yl)-3,6-dimethyl-4-oxo-3,4-dihydroquinazolin-8-yl)ethyl)amino)-N-(methylsulfonyl) picolinamide] |  |  | 250 to 500 | ≥ 5000
CCn1ncc(F)c1C1CCN(c2nc3c([C@@H](C)Nc4ccc(Cl)nc4C(=O)NS(C)(=O)=O)cc(C)cc3c(=O)n2C)CC1 [Compound 467, (R)-6-chloro-3-((1-(2-(4-(1-ethyl-4-fluoro-1H-pyrazol-5-yl)piperidin-1-yl)-3,6-dimethyl-4-oxo-3,4-dihydroquinazolin-8-yl)ethyl)amino)-N-(methylsulfonyl) picolinamide] |  |  | < 250 | ≥ 5000
Cc1cc([C@@H](C)Nc2ccc(Cl)nc2C(=O)NS(C)(=O)=O)c2nc(N3CCC(n4cc(-c5cccnc5)cn4)CC3)n(C)c(=O)c2c1 [Compound 234, (R)-6-chloro-3-((1-(3,6-dimethyl-4-oxo-2-(4-(4-(pyridin-3-yl)-1H-pyrazol-1-yl)piperidin-1-yl)-3,4-dihydroquinazolin-8-yl)ethyl)amino)-N-(methylsulfonyl) picolinamide] | < 250 | 1000 to 5000 |  | 
Cc1cc([C@@H](C)Nc2ccc(Cl)nc2C(=O)NS(C)(=O)=O)c2nc(N3C[C@@H]4C[C@H]3CN4c3ncc(C#N)cc3F)n(C)c(=O)c2c1 [Compound 579, 6-chloro-3-(((R)-1-(2-((1S,4S)-5-(5-cyano-3-fluoropyridin-2-yl)-2,5-diazabicyclo [2.2.1]heptan-2-yl)-3,6-dimethyl-4-oxo-3,4-dihydroquinazolin-8-yl)ethyl)amino)-N-(methylsulfonyl) picolinamide] |  |  | 250 to 500 | ≥ 5000
Cc1cc([C@@H](C)Nc2ccc(Cl)nc2C(=O)NS(C)(=O)=O)c2nc(N3Cc4cn(-c5cnn(C)c5)nc4C3)n(C)c(=O)c2c1 [Compound 245, (R)-6-chloro-3-((1-(3,6-dimethyl-2-(2-(1-methyl-1H-pyrazol-4-yl)-2,6-dihydropyrrolo[3,4-c]pyrazol-5(4H)-yl)-4-oxo-3,4-dihydroquinazolin-8-yl)ethyl)amino)-N-(methylsulfonyl) picolinamide] | < 250 | 1000 to 5000 |  | 
Cc1cc([C@@H](C)Nc2ccc(Cl)nc2C(=O)NS(C)(=O)=O)c2nc(N3CCC(c4nn(C)cc4C#N)CC3)n(C)c(=O)c2c1 [Compound 697, (R)-6-chloro-3-((1-(2-(4-(4-cyano-1-methyl-1H-pyrazol-3-yl)piperidin-1-yl)-3,6-dimethyl-4-oxo-3,4-dihydroquinazolin-8-yl)ethyl)amino)-N-(methylsulfonyl) picolinamide] |  |  | 250 to 500 | 1000 to 5000
Cc1cc([C@@H](C)Nc2ccc(Cl)nc2C(=O)NS(C)(=O)=O)c2nc([C@@H]3CCCN(c4cc[nH]n4)C3)n(C)c(=O)c2c1 (relative stereo) [Compound 322, 3-(((R)-1-(2-((R*)-1-(1H-pyrazol-3-yl)piperidin-3-yl)-3,6-dimethyl-4-oxo-3,4-dihydroquinazolin-8-yl)ethyl)amino)-6-chloro-N-(methylsulfonyl) picolinamide] | < 250 | 1000 to 5000 |  | 
Cc1cc([C@@H](C)Nc2ccc(Cl)nc2C(=O)NS(C)(=O)=O)c2nc(N3CCC(c4cnn(C)c4)CC3)n(C)c(=O)c2c1 [Compound 181, (R)-6-chloro-3-((1-(3,6-dimethyl-2-(4-(1-methyl-1H-pyrazol-4-yl)piperidin-1-yl)-4-oxo-3,4-dihydroquinazolin-8-yl)ethyl)amino)-N-(methylsulfonyl) picolinamide] | < 250 | 1000 to 5000 |  | 
